For one series, the target named is α7 nAChR (Homo sapiens, UniProt P36544). To be noted: 10 μM; read-out: Partial inhibition of the α7 nAChR.
Series [1] concerns 88 receptors, transporters, enzymes and kinases. The note with it: 10 μM.
The target in the next series is rat α9α10 nAChR (Rattus norvegicus, UniProt P43144+Q9JLB5). Briefly: cell-based. It counts as cell-based. To be noted: α9α10 nAChR IC50 (nM) Rat.
The test system of series [2] is chronic constriction injury (CCI) model. Also on record: species or system Sprague Dawley rats. To be noted: rat, in vivo.
In another series the target is human α9α10 nAChR (Homo sapiens, UniProt Q9GZZ6+Q9UGM1). Briefly: cell-based. The class given is cell-based.

SMILES strings stand for the structures. Numbered stars: 1 amine (or outer) side, 2 acyl side, 3 side chain; on linkers, the order of the positions; unused ones are H or OH. Bridge positions count the residues as written; N and C are the ends. Square brackets hold non-standard residues; d marks the D form. Triazole bridges read from a SMILES are 1,4-linked. Peptide text beside a SMILES is read from it. Gly(αS-SH) = O=C([C@@H](N[*:1])S[*:3])[*:2]; Tyr(3-I) = N[C@@H](Cc1ccc(O)c(I)c1)C(=O)O; Orn(N3) = [N-]=[N+]=NCCC[C@H](N)C(=O)O; Dap(N3) = [N-]=[N+]=NC[C@H](N)C(=O)O; NMeY = CN[C@@H](Cc1ccc(O)cc1)C(=O)O; Cit = NC(=O)NCCC[C@H](N)C(=O)O; Pra = C#CC[C@H](N)C(=O)O

rat α9α10 nAChR, sequence (P43144 26-479 limits assumed): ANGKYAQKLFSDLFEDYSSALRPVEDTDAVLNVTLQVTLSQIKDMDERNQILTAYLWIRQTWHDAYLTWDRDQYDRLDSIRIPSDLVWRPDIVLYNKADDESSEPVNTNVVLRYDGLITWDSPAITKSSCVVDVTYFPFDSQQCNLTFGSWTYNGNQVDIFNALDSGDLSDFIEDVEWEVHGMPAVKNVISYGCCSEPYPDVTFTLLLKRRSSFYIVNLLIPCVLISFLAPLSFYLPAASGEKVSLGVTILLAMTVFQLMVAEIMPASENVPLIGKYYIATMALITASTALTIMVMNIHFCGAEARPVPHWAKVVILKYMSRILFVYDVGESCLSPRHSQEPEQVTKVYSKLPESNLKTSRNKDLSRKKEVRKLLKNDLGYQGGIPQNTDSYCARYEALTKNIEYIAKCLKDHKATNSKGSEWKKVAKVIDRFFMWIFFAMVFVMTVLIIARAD
rat α9α10 nAChR, sequence (Q9JLB5 25-447 limits assumed): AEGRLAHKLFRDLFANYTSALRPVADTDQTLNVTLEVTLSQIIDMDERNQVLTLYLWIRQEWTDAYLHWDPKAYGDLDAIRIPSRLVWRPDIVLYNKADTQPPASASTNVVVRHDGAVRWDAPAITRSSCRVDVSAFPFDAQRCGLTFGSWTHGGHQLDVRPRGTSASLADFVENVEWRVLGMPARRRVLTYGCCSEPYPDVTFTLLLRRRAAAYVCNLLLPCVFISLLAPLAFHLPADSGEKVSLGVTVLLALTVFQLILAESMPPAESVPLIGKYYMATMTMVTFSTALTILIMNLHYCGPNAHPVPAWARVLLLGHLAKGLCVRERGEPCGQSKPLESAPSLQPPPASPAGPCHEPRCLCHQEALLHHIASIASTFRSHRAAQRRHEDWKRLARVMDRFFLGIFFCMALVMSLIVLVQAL
human α9α10 nAChR, sequence (Q9UGM1 26-479 limits assumed): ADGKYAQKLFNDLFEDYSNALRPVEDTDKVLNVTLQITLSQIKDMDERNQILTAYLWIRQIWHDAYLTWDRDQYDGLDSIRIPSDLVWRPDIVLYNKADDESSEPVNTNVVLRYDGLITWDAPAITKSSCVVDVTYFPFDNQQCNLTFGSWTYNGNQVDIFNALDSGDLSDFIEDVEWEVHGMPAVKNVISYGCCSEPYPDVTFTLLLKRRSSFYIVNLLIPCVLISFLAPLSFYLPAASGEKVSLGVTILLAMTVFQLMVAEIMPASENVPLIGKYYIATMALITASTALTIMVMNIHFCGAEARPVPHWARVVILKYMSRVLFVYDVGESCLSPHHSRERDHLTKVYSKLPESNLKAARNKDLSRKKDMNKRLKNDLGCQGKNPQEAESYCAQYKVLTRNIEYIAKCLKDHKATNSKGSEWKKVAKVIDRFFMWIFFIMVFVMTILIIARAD
human α9α10 nAChR, sequence (Q9GZZ6 25-450 limits assumed): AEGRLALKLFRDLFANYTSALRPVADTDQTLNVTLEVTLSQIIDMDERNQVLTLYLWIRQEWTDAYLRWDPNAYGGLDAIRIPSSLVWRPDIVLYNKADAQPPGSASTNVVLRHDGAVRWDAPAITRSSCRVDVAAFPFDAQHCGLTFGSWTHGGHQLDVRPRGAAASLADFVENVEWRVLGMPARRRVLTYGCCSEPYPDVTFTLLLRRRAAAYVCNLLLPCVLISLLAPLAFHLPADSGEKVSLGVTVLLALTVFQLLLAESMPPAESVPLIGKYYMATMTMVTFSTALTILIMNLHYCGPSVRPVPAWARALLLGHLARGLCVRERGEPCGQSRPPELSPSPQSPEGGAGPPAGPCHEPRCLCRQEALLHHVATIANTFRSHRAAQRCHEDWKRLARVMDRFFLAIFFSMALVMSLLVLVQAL
α7 nAChR, sequence (P36544 23-502 limits assumed): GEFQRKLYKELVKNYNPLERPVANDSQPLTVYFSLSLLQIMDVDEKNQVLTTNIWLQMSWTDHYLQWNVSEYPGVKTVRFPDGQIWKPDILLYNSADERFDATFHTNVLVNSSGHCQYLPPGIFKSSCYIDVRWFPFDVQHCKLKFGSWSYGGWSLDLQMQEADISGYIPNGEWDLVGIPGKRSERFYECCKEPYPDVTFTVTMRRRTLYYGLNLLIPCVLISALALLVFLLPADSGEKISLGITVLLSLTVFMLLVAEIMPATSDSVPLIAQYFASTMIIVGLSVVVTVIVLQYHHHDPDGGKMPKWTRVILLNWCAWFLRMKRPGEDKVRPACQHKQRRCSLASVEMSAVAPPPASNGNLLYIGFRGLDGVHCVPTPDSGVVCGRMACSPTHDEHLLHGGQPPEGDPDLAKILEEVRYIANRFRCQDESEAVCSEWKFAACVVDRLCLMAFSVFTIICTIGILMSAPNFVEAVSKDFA

Take `C[C@@H](O)[C@@H]1NC(=O)[C@@H]2Cc3cn(nn3)CCC[C@@H](C(=O)N[C@@H](Cc3ccc(O)cc3)C(N)=O)NC(=O)[C@H](CCC(N)=O)NC(=O)[C@H](Cc3ccc(O)c(I)c3)NC(=O)[C@H](CCCNC(N)=O)NC(=O)[C@H](CSSC[C@H](NC(=O)CN)C(=O)N2)NC(=O)[C@H](CCCNC(=N)N)NC(=O)[C@@H]2CCCN2C(=O)[C@H](CC(=O)O)NC1=O` [Ib′, L-tyrosinamide, glycyl-L-cysteinyl-L-alanyl-L-threonyl-L-α-aspartyl-L-prolyl-L-arginyl-L-cysteinyl-N5-(aminocarbonyl)-L-ornithyl-L-3-iodotyrosyl-L-glutaminyl-L-norvalyl-cyclic (2→8)-disulfide-cyclic 3^3,12^5-(1H-1,2,3-triazole-4,1-diyl)] (H-GC[Pra]TDPRC[Cit][Tyr(3-I)]Q[Orn(N3)]Y-NH2; disulfide 2-8; triazole 3-12): at α7 nAChR, the inhibition at 10 µM came to 56%. Further, in series [1], the “Off-target effects in panel of 88 receptors, transporters, enzymes and kinases” value is recorded as “no off-target effects”. For the same compound, the figures for the IC50 at rat α9α10 nAChR and on human α9α10 nAChR were 2.3 ± 0.5 nM and 48 ± 9 nM, respectively. Moreover, the “Paw withdrawal thresholds relative to vehicle-treated control animals” value in series [2] is “statistically significant improvement in paw withdrawal thresholds”.
As to `C[C@@H](O)[C@@H]1NC(=O)[C@H]2NC(=O)[C@@H](NC(=O)CN)CCCn3cc(nn3)C[C@H](NC(=O)[C@H](CCCNC(=N)N)NC(=O)[C@@H]3CCCN3C(=O)[C@H](CC(=O)O)NC1=O)C(=O)N[C@@H](CCCNC(N)=O)C(=O)N[C@@H](Cc1ccc(O)c(I)c1)C(=O)N[C@@H](CCC(N)=O)C(=O)N[C@H](C(=O)N[C@@H](Cc1ccc(O)cc1)C(N)=O)CSS2` [Id, L-tyrosinamide, glycyl-L-norvalyl-L-cysteinyl-L-threonyl-L-α-aspartyl-L-prolyl-L-arginyl-L-alanyl-N5-(aminocarbonyl)-L-ornithyl-L-3-iodotyrosyl-L-glutaminyl-L-cysteinyl-cyclic 2^5,8^3-(1H-1,2,3-triazole-1,4-diyl)-cyclic-(3→12)-disulfide] (H-G[Orn(N3)][Gly(αS-SH)]TDPR[Pra][Cit][Tyr(3-I)]QCY-NH2; triazole 2-8; disulfide 3-12), the IC50 against rat α9α10 nAChR and against human α9α10 nAChR was no less than 1000 nM each time.
For the compound `C[C@@H](O)[C@@H]1NC(=O)[C@@H]2Cn3cc(nn3)CCC[C@@H](C(=O)N[C@@H](Cc3ccc(O)cc3)C(=O)O)NC(=O)[C@H](CCC(N)=O)NC(=O)[C@H](Cc3c[nH]c4ccccc34)NC(=O)[C@H](CCCNC(N)=O)NC(=O)[C@H](CSSC[C@H](NC(=O)CN)C(=O)N2)NC(=O)[C@H](CCCNC(=N)N)NC(=O)[C@@H]2CCCN2C(=O)[C@H](CC(=O)O)NC1=O` [Ik, L-tyrosine, glycyl-L-cysteinyl-L-alanyl-L-threonyl-L-α-aspartyl-L-prolyl-L-arginyl-L-cysteinyl-N5-(aminocarbonyl)-L-ornithyl-L-tryptophyl-L-glutaminyl-L-(2S)-2-aminopentanoyl-cyclic (2→8)-disulfide-cyclic 3^3,12^5-(1H-1,2,3-triazole-1,4-diyl)], the IC50 amounted to 9.5 ± 1.3 nM at rat α9α10 nAChR and 16.6 ± 1.1 nM on human α9α10 nAChR.
With `C[C@@H](O)[C@@H]1NC(=O)[C@@H]2Cc3cn(nn3)CCC[C@@H](C(=O)N[C@@H](Cc3ccc(O)cc3)C(=O)N(C)[C@@H](Cc3ccc(O)cc3)C(=O)O)NC(=O)[C@H](CCC(N)=O)NC(=O)[C@H](Cc3c[nH]c4ccccc34)NC(=O)[C@H](CCCNC(N)=O)NC(=O)[C@H](CSSC[C@H](NC(=O)CN)C(=O)N2)NC(=O)[C@H](CCCNC(=N)N)NC(=O)[C@@H]2CCCN2C(=O)[C@H](CC(=O)O)NC1=O` [Ip, L-tyrosine, glycyl-L-cysteinyl-L-alanyl-L-threonyl-L-α-aspartyl-L-prolyl-L-arginyl-L-cysteinyl-N5-(aminocarbonyl)-L-ornithyl-L-tryptophyl-L-glutaminyl-L-norvalyl-L-tyrosyl-N-methyl-cyclic (2→8)-disulfide-cyclic 3^3,12^5-(1H-1,2,3-triazole-4,1-diyl)] (H-GC[Pra]TDPRC[Cit]WQ[Orn(N3)]Y[NMeY]-OH; disulfide 2-8; triazole 3-12), the IC50 against rat α9α10 nAChR is no more than 10 nM; on human α9α10 nAChR it was 26 ± 1.4 nM.
For `C[C@@H](O)[C@@H]1NC(=O)[C@@H]2Cc3cn(nn3)C[C@@H](C(=O)N[C@@H](Cc3ccc(O)cc3)C(N)=O)NC(=O)[C@H](CCC(N)=O)NC(=O)[C@H](Cc3ccc(O)c(I)c3)NC(=O)[C@H](CCCNC(N)=O)NC(=O)[C@H](CSSC[C@H](NC(=O)CN)C(=O)N2)NC(=O)[C@H](CCCNC(=N)N)NC(=O)[C@@H]2CCCN2C(=O)[C@H](CC(=O)O)NC1=O` [If, L-tyrosinamide, glycyl-L-cysteinyl-L-alanyl-L-threonyl-L-α-aspartyl-L-prolyl-L-arginyl-L-cysteinyl-N5-(aminocarbonyl)-L-ornithyl-L-3-iodotyrosyl-L-glutaminyl-L-alanyl-cyclic (2→8)-disulfide-cyclic 3^3,12^3-(1H-1,2,3-triazole-4,1-diyl)] (H-GC[Pra]TDPRC[Cit][Tyr(3-I)]Q[Dap(N3)]Y-NH2; disulfide 2-8; triazole 3-12), the IC50 on rat α9α10 nAChR stood at 12.5 ± 8.7 nM; at human α9α10 nAChR, 1520 ± 116 nM.

Source of the values: patent US11612661B2 (priority 2019, dated 2023).
